Reference: ChEMBL document CHEMBL3784934, “N-Alkylpyrido[1',2':1,5]pyrazolo-[4,3-d]pyrimidin-4-amines: A new series of negative allosteric modulators of mGlu1/5 with CNS exposure in rodents” (Bioorg Med Chem Lett, 2016)
Each block holds one compound with its values, some of them ahead of it. The source made the active and inactive calls. The rule behind the calls is not given here.

Assays:
[1] = biological target: Metabotropic glutamate receptor 1 (Rattus norvegicus, UniProt P23385); test: Negative allosteric modulation of rat mGluR1 expressed in HEK293 cells assessed as inhibition of glutamate induced calcium mobilization by calcium mobilization assay; type: functional, cell-based
Chain of Metabotropic glutamate receptor 1 (P23385 whole entry): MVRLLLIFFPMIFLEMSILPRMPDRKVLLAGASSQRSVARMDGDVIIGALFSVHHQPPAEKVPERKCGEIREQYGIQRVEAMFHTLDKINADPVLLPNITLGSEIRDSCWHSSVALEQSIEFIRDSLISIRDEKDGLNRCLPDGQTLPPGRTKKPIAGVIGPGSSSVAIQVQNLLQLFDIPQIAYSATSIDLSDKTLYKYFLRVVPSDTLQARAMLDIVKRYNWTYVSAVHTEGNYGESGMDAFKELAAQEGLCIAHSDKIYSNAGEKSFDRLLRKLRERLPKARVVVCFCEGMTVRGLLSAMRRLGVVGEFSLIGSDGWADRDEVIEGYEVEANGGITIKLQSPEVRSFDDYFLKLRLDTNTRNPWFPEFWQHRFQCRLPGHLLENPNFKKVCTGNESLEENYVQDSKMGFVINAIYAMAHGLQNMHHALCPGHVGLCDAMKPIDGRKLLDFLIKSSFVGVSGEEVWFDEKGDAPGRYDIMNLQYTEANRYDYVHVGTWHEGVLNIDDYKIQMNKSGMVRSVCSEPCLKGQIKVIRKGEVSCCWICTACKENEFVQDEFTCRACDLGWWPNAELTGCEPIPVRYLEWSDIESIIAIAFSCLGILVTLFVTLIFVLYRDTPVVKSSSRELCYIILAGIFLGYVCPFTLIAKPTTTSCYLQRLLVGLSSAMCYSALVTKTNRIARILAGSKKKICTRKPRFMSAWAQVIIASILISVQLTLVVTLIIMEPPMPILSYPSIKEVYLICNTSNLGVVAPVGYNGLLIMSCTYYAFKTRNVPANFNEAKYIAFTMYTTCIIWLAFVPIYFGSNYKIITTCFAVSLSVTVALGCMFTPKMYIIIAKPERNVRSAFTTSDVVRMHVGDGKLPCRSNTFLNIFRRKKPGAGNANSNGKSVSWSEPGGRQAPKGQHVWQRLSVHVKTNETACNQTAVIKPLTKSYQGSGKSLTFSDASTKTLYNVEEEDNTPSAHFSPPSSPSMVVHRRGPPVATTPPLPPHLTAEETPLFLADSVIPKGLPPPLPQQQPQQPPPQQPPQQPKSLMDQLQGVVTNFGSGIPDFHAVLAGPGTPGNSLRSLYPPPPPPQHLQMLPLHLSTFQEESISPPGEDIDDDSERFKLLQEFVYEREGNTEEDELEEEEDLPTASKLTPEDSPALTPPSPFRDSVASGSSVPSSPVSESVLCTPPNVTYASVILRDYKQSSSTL

[2] = biological target: Metabotropic glutamate receptor 1 (Rattus norvegicus) (UniProt P23385); test: Negative allosteric modulation of rat mGluR1 expressed in HEK293 cells assessed as calcium mobilization at 30 uM by calcium mobilization assay relative to 100 uM glutamate; type: functional, cell-based
Chain of Metabotropic glutamate receptor 1 (Rattus norvegicus) (P23385 19-1199 limits assumed): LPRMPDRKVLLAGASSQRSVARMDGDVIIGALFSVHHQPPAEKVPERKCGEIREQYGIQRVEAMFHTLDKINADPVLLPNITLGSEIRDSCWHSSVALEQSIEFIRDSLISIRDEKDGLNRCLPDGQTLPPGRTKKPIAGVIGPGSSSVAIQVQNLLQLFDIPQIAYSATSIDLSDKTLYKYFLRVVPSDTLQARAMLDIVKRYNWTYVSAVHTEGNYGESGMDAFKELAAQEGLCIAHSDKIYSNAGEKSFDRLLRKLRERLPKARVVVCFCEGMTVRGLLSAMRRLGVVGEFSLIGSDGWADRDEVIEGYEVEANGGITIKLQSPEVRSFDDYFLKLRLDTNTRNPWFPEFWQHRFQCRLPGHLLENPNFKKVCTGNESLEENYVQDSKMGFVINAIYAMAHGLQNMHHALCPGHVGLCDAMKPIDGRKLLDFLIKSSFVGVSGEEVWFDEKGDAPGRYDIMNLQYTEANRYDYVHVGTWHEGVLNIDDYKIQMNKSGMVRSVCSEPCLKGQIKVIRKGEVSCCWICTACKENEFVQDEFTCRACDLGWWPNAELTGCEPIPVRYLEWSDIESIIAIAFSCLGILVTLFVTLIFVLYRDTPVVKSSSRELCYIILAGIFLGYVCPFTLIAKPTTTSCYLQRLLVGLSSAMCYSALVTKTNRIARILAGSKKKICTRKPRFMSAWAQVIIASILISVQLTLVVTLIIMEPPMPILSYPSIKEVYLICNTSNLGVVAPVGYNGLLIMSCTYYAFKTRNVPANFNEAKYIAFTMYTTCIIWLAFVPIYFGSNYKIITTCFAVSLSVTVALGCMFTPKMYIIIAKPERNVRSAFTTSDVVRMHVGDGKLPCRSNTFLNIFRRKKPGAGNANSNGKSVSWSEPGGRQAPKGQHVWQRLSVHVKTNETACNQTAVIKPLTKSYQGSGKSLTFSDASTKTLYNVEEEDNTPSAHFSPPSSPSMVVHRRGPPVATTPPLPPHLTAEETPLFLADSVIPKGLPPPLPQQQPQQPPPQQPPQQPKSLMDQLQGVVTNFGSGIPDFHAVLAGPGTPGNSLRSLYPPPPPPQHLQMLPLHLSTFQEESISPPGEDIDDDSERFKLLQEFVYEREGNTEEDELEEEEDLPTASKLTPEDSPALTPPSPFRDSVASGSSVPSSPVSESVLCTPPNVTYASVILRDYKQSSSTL

[3] = biological target: Metabotropic glutamate receptor 5 (Rattus norvegicus, UniProt P31424); test: Negative allosteric modulation of rat mGluR5 expressed in HEK293 cells assessed as inhibition of glutamate induced calcium mobilization by calcium mobilization assay; type: functional, cell-based
Chain of Metabotropic glutamate receptor 5 (P31424 whole entry): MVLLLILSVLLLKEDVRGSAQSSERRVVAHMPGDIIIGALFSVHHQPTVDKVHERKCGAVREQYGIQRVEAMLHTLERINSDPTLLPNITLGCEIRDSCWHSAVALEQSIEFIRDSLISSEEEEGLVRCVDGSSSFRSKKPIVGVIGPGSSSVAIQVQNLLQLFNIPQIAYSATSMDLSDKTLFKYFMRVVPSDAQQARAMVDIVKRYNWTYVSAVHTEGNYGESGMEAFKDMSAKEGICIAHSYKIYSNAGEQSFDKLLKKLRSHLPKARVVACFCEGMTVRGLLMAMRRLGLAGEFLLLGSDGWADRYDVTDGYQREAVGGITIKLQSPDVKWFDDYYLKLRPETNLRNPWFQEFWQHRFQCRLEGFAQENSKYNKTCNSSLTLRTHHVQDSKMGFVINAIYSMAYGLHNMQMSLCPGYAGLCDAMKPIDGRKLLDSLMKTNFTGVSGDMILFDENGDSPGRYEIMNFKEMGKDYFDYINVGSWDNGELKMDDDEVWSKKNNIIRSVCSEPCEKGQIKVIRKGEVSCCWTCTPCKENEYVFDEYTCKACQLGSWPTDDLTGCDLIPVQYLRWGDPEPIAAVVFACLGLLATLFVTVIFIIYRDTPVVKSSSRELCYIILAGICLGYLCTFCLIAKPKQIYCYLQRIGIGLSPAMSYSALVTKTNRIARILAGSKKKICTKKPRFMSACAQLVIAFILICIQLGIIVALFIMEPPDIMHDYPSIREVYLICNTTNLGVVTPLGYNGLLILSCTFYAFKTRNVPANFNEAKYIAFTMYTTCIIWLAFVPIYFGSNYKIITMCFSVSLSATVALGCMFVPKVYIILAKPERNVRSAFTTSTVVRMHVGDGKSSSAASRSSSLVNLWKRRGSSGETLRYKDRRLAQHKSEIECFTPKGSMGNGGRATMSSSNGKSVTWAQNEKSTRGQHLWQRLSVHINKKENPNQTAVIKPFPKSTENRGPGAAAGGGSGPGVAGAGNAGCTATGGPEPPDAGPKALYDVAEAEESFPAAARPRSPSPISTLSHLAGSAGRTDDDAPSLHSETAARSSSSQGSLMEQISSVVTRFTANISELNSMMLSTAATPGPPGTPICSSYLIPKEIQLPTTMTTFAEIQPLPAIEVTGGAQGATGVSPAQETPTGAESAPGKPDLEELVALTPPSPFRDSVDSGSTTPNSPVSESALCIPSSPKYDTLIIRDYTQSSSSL

[4] = biological target: Metabotropic glutamate receptor 5 (Rattus norvegicus) (UniProt P31424); test: Negative allosteric modulation of rat mGluR5 expressed in HEK293 cells assessed as calcium mobilization at 30 uM by calcium mobilization assay relative to 100 uM glutamate; type: functional, cell-based
Chain of Metabotropic glutamate receptor 5 (Rattus norvegicus) (P31424 21-1203 limits assumed): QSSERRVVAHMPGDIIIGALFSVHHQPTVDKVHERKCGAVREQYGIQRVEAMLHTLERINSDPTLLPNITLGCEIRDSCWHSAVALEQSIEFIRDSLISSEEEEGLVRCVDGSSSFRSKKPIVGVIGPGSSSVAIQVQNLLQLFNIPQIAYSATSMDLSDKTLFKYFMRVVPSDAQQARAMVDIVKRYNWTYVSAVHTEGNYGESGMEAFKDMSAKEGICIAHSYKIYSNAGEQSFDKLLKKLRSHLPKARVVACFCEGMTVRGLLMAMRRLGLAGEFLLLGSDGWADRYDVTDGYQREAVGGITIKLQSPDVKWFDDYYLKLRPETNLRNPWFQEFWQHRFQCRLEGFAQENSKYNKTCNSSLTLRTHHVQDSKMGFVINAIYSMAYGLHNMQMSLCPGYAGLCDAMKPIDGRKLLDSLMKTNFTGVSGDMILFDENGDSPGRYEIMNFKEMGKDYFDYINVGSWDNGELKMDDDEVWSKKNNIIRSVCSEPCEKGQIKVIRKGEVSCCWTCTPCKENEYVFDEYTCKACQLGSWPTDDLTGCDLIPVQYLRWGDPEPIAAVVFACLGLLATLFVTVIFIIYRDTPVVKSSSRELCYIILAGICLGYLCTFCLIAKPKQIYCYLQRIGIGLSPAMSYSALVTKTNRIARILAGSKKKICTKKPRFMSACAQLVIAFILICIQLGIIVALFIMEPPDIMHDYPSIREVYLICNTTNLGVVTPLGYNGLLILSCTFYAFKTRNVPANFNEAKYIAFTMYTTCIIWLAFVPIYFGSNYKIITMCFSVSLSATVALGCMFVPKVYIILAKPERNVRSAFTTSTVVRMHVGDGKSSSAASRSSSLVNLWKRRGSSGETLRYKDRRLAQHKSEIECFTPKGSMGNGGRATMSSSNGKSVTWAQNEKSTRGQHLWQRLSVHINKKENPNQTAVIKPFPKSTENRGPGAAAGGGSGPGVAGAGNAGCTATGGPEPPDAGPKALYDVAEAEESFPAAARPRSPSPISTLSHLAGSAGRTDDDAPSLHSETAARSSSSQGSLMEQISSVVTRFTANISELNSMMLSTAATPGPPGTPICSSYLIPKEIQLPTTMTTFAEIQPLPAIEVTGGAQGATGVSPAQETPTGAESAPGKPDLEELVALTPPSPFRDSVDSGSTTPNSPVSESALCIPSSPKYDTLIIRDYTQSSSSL

[5] = biological target: Adenosine receptor A1 (Homo sapiens) (UniProt P30542); test: Inhibition of recombinant human Adenosine A1 receptor expressed in CHO cells at 10 uM by radioligand binding assay; type: cell-based
[6] = biological target: Adenosine receptor A2a (Homo sapiens) (UniProt P29274); test: Inhibition of recombinant human Adenosine A2A receptor expressed in HEK293 cells at 10 uM by radioligand binding assay; type: cell-based
[7] = biological target: 5-hydroxytryptamine receptor 2B (Homo sapiens) (UniProt P41595); test: Inhibition of recombinant human 5-HT2B receptor expressed in CHOK1 cells at 10 uM by radioligand binding assay; type: cell-based; settings: CHO-K1
[8] = biological target: Sodium-dependent noradrenaline transporter (Homo sapiens) (UniProt P23975); test: Inhibition of recombinant human norepinephrine transporter expressed in MDCK cells at 10 uM by radioligand binding assay; type: cell-based
[9] = species: Rattus norvegicus; test: Inhibition of rat brain sodium channel, site 2 at 10 uM by radioligand binding assay
[10] = biological target: Casein kinase I isoform alpha (Homo sapiens) (UniProt P48729); test: Inhibition of human CK1alpha1 at 10 uM
[11] = biological target: Casein kinase I isoform delta (Homo sapiens) (UniProt P48730); test: Inhibition of human CK1delta at 10 uM
[12] = biological target: Casein kinase I isoform epsilon (Homo sapiens) (UniProt P49674); test: Inhibition of human CK1epsilon at 10 uM
[13] = biological target: Casein kinase I isoform gamma-2 (Homo sapiens) (UniProt P78368); test: Inhibition of human CK1gamma2 at 10 uM
[14] = biological target: Serine/threonine-protein kinase 17A (Homo sapiens) (UniProt Q9UEE5); test: Inhibition of human DRAK1 at 10 uM
[15] = biological target: SRSF protein kinase 1 (Homo sapiens) (UniProt Q96SB4); test: Inhibition of human SRPK1 at 10 uM
[16] = biological target: SRSF protein kinase 2 (Homo sapiens) (UniProt P78362); test: Inhibition of human SRPK2 at 10 uM
[17] = biological target: TRAF2 and NCK-interacting protein kinase (Homo sapiens) (UniProt Q9UKE5); test: Inhibition of human TNIK at 10 uM
[18] = Fraction unbound in mouse plasma by equilibrium dialysis assay; type: ADME, cell-free
[19] = test system: Plasma; test: Fraction unbound in rat plasma by equilibrium dialysis assay; type: ADME, cell-free
[20] = Fraction unbound in rat brain by equilibrium dialysis assay; type: ADME, tissue-based
[21] = Fraction unbound in mouse brain by equilibrium dialysis assay; type: ADME, tissue-based
[22] = biological target: Cytochrome P450 3A4 (Homo sapiens, UniProt P08684); test: Inhibition of CYP3A4 in human liver microsomes in presence of NADPH; type: ADME
[23] = biological target: Cytochrome P450 2D6 (Homo sapiens, UniProt P10635); test: Inhibition of CYP2D6 in human liver microsomes in presence of NADPH; type: ADME
[24] = biological target: Cytochrome P450 2C9 (Homo sapiens, UniProt P11712); test: Inhibition of CYP2C9 in human liver microsomes in presence of NADPH; type: ADME
[25] = biological target: Cytochrome P450 1A2 (Homo sapiens, UniProt P05177); test: Inhibition of CYP1A2 in human liver microsomes in presence of NADPH; type: ADME
[26] = Half life in Sprague-Dawley rat at 0.2 mg/kg, iv; type: ADME, organism-based; settings: in vivo
[27] = Plasma clearance in Sprague-Dawley rat at 0.2 mg/kg, iv; type: ADME, organism-based
[28] = Ratio of drug level in brain to plasma of rat at 0.2 mg/kg measured at 15 mins post dose; type: ADME, organism-based; settings: 0.25 h
[29] = Ratio of drug level in brain to plasma of CD-1 mouse at 30 mg/kg measured at 30 mins post dose; type: ADME, organism-based; settings: 0.5 h
[30] = Unbound brain to plasma ratio in rat at 0.2 mg/kg measured at 15 mins post dose; type: ADME, organism-based; settings: 0.25 h
[31] = Unbound brain to plasma ratio in CD-1 mouse at 30 mg/kg, ip measured at 30 mins post dose; type: ADME, organism-based; settings: 0.5 h
[32] = Tmax in Sprague-Dawley rat at 10 mg/kg, ip; type: ADME, organism-based; settings: in vivo
[33] = Cmax in Sprague-Dawley rat at 10 mg/kg, ip; type: ADME, organism-based; design: dose 10 mg/kg, route intraperitoneal; settings: in vivo
[34] = AUC in Sprague-Dawley rat at 10 mg/kg, ip; type: ADME, organism-based; settings: in vivo
[35] = Tmax in CD-1 mouse at 30 mg/kg, ip; type: ADME, organism-based; settings: in vivo
[36] = Cmax in CD-1 mouse at 30 mg/kg, ip; type: ADME, organism-based; design: dose 30 mg/kg, route intraperitoneal; settings: in vivo
[37] = AUC in CD-1 mouse at 30 mg/kg, ip; type: ADME, organism-based; settings: in vivo
[38] = biological target: Metabotropic glutamate receptor 2 (Rattus norvegicus) (UniProt P31421); test: Activity at rat mGluR2 expressed in HEK293-GIRK cells assessed as effect on glutamate-induced response by thallium flux assay; type: cell-based
[39] = biological target: Metabotropic glutamate receptor 3 (Rattus norvegicus) (UniProt P31422); test: Activity at rat mGluR3 expressed in HEK293-GIRK cells assessed as effect on glutamate-induced response by thallium flux assay; type: cell-based
[40] = biological target: Metabotropic glutamate receptor 4 (Rattus norvegicus) (UniProt P31423); test: Activity at rat mGluR4 expressed in HEK293-GIRK cells assessed as effect on glutamate-induced response by thallium flux assay; type: cell-based
[41] = biological target: Metabotropic glutamate receptor 6 (Rattus norvegicus) (UniProt P35349); test: Activity at rat mGluR6 expressed in HEK293-GIRK cells assessed as effect on glutamate-induced response by thallium flux assay; type: cell-based
[42] = biological target: Metabotropic glutamate receptor 7 (Rattus norvegicus) (UniProt P35400); test: Activity at rat mGluR7 expressed in HEK293-GIRK cells assessed as effect on glutamate-induced response by thallium flux assay; type: cell-based
[43] = biological target: Metabotropic glutamate receptor 8 (Rattus norvegicus) (UniProt P70579); test: Activity at rat mGluR8 expressed in HEK293-GIRK cells assessed as effect on glutamate-induced response by thallium flux assay; type: cell-based
[44] = biological target: Adenosine receptor A3 (Homo sapiens) (UniProt P0DMS8); test: Inhibition of recombinant human Adenosine A3 receptor expressed in CHOK1 cells at 10 uM by radioligand binding assay; settings: CHO-K1
Chain of Adenosine receptor A3 (Homo sapiens) (P0DMS8 whole entry, looked up): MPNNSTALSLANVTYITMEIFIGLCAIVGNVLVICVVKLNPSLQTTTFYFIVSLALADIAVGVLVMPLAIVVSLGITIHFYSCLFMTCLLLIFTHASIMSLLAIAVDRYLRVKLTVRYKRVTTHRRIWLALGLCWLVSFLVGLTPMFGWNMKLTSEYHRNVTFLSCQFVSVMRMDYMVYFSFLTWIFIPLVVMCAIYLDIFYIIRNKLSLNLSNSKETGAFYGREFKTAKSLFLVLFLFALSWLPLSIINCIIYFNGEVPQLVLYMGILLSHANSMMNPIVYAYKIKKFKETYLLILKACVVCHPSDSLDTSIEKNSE

Compound: c1ccn2nc3c(NC4CCCCCC4)ncnc3c2c1
- IC50 [1]: 0.225 µM
- %max [2]: 2%
- IC50 ([3]; hek293, read-out: IC50): > 10 µM
- IC50 ([3]; read-out: pIC50 (converted)): > 10 µM
- %max [4]: 20%

Compound: FC1(F)CCC(Nc2ncnc3c2nn2ccccc32)CC1
- IC50 [1]: > 10 µM
- %max [2]: 39%
- IC50 ([3]; read-out: IC50): > 30 µM
- IC50 ([3]; read-out: pIC50 (converted)): > 31.6 µM

Compound: C[C@H]1CC[C@H](Nc2nc(N)nc3c2nn2ccccc32)CC1
- IC50 [1]: 5.6 µM
- %max [2]: 0.58%
- IC50 ([3]; read-out: IC50): > 30 µM
- IC50 ([3]; read-out: pIC50 (converted)): > 31.6 µM

Compound: C[C@@H](Nc1ncnc2c1nn1ccccc21)C(C)(C)C
- %max [2]: 2.2%
- IC50 ([3]; read-out: IC50): > 30 µM
- IC50 ([3]; read-out: pIC50 (converted)): > 31.6 µM

Compound: CC1(C)CCC(Nc2ncnc3c2nn2ccccc32)CC1
- IC50 [1]: 0.069 µM
- %max [2]: 2.9%
- IC50 ([3]; read-out: IC50): 0.129 µM
- %max [4]: 1.6%
- inhibition [5]: 92%
- inhibition [6]: 94%
- inhibition [7]: 65%
- inhibition [8]: 65%
- inhibition [9]: 55%
- inhibition [10]: 65.3%
- inhibition [11]: 85.1%
- inhibition [12]: 75.9%
- inhibition [13]: 50.4%
- inhibition [14]: 52.9%
- inhibition [15]: 79.4%
- inhibition [16]: 75.2%
- inhibition [17]: 58.8%
- Fu [18]: 0.025
- Fu [19]: 0.037
- fraction unbound [20]: 0.008
- fraction unbound [21]: 0.01
- IC50 [22]: > 30 µM
- IC50 [23]: > 30 µM
- IC50 [24]: > 30 µM
- IC50 [25]: 9.6 µM
- half-life [26]: 34 min
- clearance [27]: 98 mL/min/kg
- Kp [28]: 5.3
- Kp [29]: 3.3
- K(p,uu,brain) [30]: 1.1
- K(p,uu,brain) [31]: 1.3
- Tmax [32]: 15 min
- Cmax [33]: 2300 nM
- AUC [34]: 3.23 µM·h
- Tmax [35]: 20 min
- Cmax [36]: 3000 nM
- AUC [37]: 2.86 µM·h
- Activity [38]: inactive
- Activity [39]: inactive
- Activity [40]: inactive
- Activity [41]: inactive
- Activity [42]: inactive
- Activity [43]: inactive
- inhibition [44]: 63%

Compound: CNc1nc(N[C@H]2CC[C@H](C)CC2)c2nn3ccccc3c2n1
- IC50 [1]: > 30 µM
- IC50 ([3]; read-out: IC50): > 30 µM
- IC50 ([3]; read-out: pIC50 (converted)): > 31.6 µM

Compound: Cc1nc(N[C@H]2CC[C@H](C)CC2)c2nn3ccccc3c2n1
- %max [2]: 2.6%
- IC50 ([3]; read-out: IC50): > 30 µM
- IC50 ([3]; read-out: pIC50 (converted)): > 31.6 µM

Compound: C[C@H](Nc1ncnc2c1nn1ccccc21)C1CC1
- IC50 [1]: > 30 µM
- IC50 ([3]; read-out: IC50): > 30 µM
- IC50 ([3]; read-out: pIC50 (converted)): > 31.6 µM

Compound: CCC(C)(C)Nc1ncnc2c1nn1ccccc21
- IC50 [1]: > 10 µM
- %max [2]: 12.6%
- IC50 ([3]; read-out: IC50): > 30 µM
- IC50 ([3]; read-out: pIC50 (converted)): > 31.6 µM

Further lines, results first:

- IC50 [1]: > 10 µM
- %max [2]: 71.6%
- IC50 ([3]; read-out: IC50): > 30 µM
- IC50 ([3]; read-out: pIC50 (converted)): > 31.6 µM
Compound: C[C@@H](Nc1ncnc2c1nn1ccccc21)C1CC1

- %max [2]: 7.1%
- IC50 ([3]; read-out: IC50): > 30 µM
- IC50 ([3]; read-out: pIC50 (converted)): > 31.6 µM
Compound: CC1(C)[C@@H]2CC[C@]1(C)[C@@H](Nc1ncnc3c1nn1ccccc31)C2

- IC50 [1]: 0.148 µM
- %max [2]: 2.6%
- IC50 ([3]; read-out: IC50): 2.36 µM
- %max [4]: 4.8%
Compound: c1ccn2nc3c(NC45CC6CC(CC(C6)C4)C5)ncnc3c2c1

- IC50 [1]: 0.093 µM
- %max [2]: 2%
- IC50 ([3]; read-out: IC50): 2.27 µM
- %max [4]: 2%
Compound: C[C@H]1CC[C@H](Nc2ncnc3c2nn2ccccc32)CC1

- IC50 [1]: 0.233 µM
- %max [2]: 3.1%
- IC50 ([3]; read-out: IC50): 2.09 µM
- %max [4]: 2.3%
Compound: C[C@@H]1[C@@H](Nc2ncnc3c2nn2ccccc32)C[C@H]2C[C@@H]1C2(C)C

- %max [2]: 0.9%
- pIC50 ([3]; hek293): < 5
- IC50 ([3]; read-out: IC50): > 10 µM
- %max [4]: 61.8%
Compound: C[C@H](Nc1ncnc2c1nn1ccccc21)C1CCCCC1
